In patent US8921373B2, “Compounds having TRPV1 antagonistic activity and uses thereof” (Shionogi & Co., Ltd., priority 2010, dated 2014):

Legend:
human recombinant TRPV1 [1] = target: T1, human recombinant TRPV1 (Homo sapiens (Human), UniProt Q8NER1); assay: TRPV1 pH-Based Assay (Protocol 2, Ca2+ response in TRPV1/CHO cells, Fura-2); type: cell-based; settings: TRPV1/CHO cells, pH 5.0-5.1; read-out: IC50 value by the pH-Based Assay
Method in brief: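 CHO cells stably expressing human TRPV1, Fura-2 loaded, given compound (1% DMSO in 10× stock) before acid challenge to final pH 5.0-5.1 (3.2 or 3.3 mM H2SO4). 340/380 nm ratio recorded at 0.5 Hz; maximal ratio after agonist addition versus 16-point baseline used as response.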

[2] = Measurement of body temperature increase (rectal body temperature); type: in vivo, rat; settings: Crl/SD rats, oral, 1 mg/mL at 10 mL/kg
Description: Test Animals: Selection of rats (Crl/SD rats, 7 weeks, male) for this study was based on rectal body temperature measured during the morning of the day of dosing. In addition, animals selected for this study were acclimated to both the rectal measurement procedure and to being handled and dosed to minimize spontaneous, stress-induced, increases in body temperature. The study was conducted in the animal care laboratories where the room temperature and humidity were kept. The rats were free to move and food and water during the study. Each rat was numbered with color line on the tail, housed in each cage and permitted the normal range of movement. Immediately before each body temperature was measured, they transferred to a single cage at each measurement. To reduce stress which affected the body temperature, the rats were covered with towels at the measurement. The thermistor probe was then carefully inserted into the rectum of each rat and left in place until the value on the digital display had stabilized.
Assays: On the day before dosing, rectal body temperatures were measured at 9:00, 10:00, 11:00, 12:30, 13:30, 14:30 and 15:30 to familiarize the animals with the measurement procedure prior to administration of the test or control treatments. The rats were also dosed by oral gavage without vehicle at 12:30 to acclimate and familiarized the animals with the handling and dosing procedure.
On the day of dosing, only rats whose rectal body temperatures were within the range of 37.0° C. to 37.7° C. were selected for this study. Rectal body temperatures were measured at 9:00, 10:00 and 11:00. Rats whose rectal body temperatures were over 37.9° C. at 10:00, and were outside the range of 37.0° C. to 37.7° C. at 11:00 were excluded from the study. The selected rats were divided to several groups based on their rectal body temperatures at 11:00. Rectal body temperatures of the selected rats were measured again at 12:30, and any rats whose rectal body temperature was 38.0° C. or greater were excluded from the study.
Following the group assignment, test compounds or vehicle was administrated to the rats. Each test compound was dissolved in 0.5% methylcellurose and the final concentration of the compound was adjusted to 1 mg/mL. Test compound was orally administrated in a volume 10 mL/kg once. 10 mL/kg of vehicle (0.5% methylcellurose) was administered to the vehicle group. The rectal body temperatures were measured 0.5, 1 and 2 hrs after the administration. The study was conducted in the animal care laboratories where the room temperature and humidity were kept.
Body temperature increase (ΔTb) was calculated from the difference from an average of the vehicle group at each time point.

human recombinant TRPV1 [3] = target: T1, human recombinant TRPV1; assay: TRPV1 Capsaicin-Based Assay (Protocol 2, TRPV1/CHO cells, Fluo-4, FLIPR); type: cell-based; settings: TRPV1/CHO cells, capsaicin 100 nM final; read-out: IC50 value by the Capsaicin-Based Assay
Method in brief: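 CHO cells stably expressing human TRPV1 were loaded with 3 μM Fluo-4 for 1 h, then given compounds in HBSS/1 mM CaCl2/20 mM HEPES pH 7.4 with 1% DMSO for 2 min before 100 nM capsaicin (final). FLIPR fluorescence recorded over the full course; curves fitted.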

[4] = test system: FCA-induced inflammation of the rat hind paw; assay: Freund's complete adjuvant (FCA) model of inflammatory pain, reversal of hyperalgesia; type: in vivo; settings: rats
Description: Test Animals: Each experiment uses rats weighing between 200-260 g at the start of the experiment. The rats are group-housed and have free access to food and water at all times, except prior to oral administration of a compound of Formula I when food is removed for 16 hours before dosing. A control group acts as a comparison to rats treated with a compound of Formula I. The control group is administered the carrier for the compound of Formula I. The volume of carrier administered to the control group is the same as the volume of carrier and compound of Formula I administered to the test group.
Inflammatory Pain: To assess the actions of the compounds of Formula I on the treatment or prevention of inflammatory pain the Freund's complete adjuvant (“FCA”) model of inflammatory pain is used. […] 24 hour post injection, the animal is assessed for response to noxious mechanical stimuli by determining the PWT, or to noxious thermal stimuli by determining the PWL, as described below. […] Responses to noxious mechanical or thermal stimuli are then determined 1, 3, 5 and 24 hours post administration. […]
Response to Mechanical Stimuli as an Assessment of Mechanical Hyperalgesia: The paw pressure assay can be used to assess mechanical hyperalgesia. For this assay, hind paw withdrawal thresholds (PWT) to a noxious mechanical stimulus are determined using an analgesymeter (Model 7200, commercially available from Ugo Basile of Italy) as described in C. […] PWT is determined once for each rat at each time point and only the affected (ipsilateral) paw is tested.
Response to Thermal Stimuli as an Assessment of Thermal Hyperalgesia: The plantar test can be used to assess thermal hyperalgesia. For this test, hind paw withdrawal latencies (PWL) to a noxious thermal stimulus are determined using a plantar test apparatus (commercially available from Ugo Basile of Italy) following the technique described by K. Hargreaves et al., “A New and Sensitive Method for Measuring Thermal Nociception in Cutaneous Hyperalgesia,” Pain 32(1):77-88 (1988). […] Three latencies are determined at each time point and averaged. […]

T1 sequence (Q8NER1 whole entry): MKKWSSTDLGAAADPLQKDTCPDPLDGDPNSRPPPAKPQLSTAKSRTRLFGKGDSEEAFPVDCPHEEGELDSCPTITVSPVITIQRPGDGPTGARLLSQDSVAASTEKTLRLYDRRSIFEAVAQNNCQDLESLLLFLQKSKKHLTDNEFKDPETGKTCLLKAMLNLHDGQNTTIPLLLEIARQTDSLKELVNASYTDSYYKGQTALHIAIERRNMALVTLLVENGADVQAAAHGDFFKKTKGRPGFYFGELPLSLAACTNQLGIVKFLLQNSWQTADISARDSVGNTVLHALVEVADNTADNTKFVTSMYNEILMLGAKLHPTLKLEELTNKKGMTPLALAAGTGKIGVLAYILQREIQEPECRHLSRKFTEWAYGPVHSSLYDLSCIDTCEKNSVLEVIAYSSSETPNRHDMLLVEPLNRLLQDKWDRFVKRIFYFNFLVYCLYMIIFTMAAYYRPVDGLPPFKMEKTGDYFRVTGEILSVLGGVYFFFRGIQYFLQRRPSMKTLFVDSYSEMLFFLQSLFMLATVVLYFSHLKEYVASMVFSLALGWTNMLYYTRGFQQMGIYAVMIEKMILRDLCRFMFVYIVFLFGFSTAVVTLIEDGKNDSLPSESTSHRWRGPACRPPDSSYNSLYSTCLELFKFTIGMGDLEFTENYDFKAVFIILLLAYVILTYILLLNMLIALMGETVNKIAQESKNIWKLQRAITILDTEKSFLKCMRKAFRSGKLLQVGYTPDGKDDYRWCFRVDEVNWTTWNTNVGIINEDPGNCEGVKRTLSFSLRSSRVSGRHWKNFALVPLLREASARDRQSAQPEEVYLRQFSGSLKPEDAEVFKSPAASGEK

Row | SMILES | IC50 (human recombinant TRPV1 [1]) | Body temperature increase [2] | IC50 (human recombinant TRPV1 [3]) | Percentage reversal of hyperalgesia, % Reversal (3 mg/Kg, 3 hours post administration) [4]
1 | O=C(Nc1nc2ccc(F)cc2s1)N1CCN(c2ncc(C[C@@H](O)CO)cc2F)CC1 [ACW, (R)-4-(5-(2,3-dihydroxypropyl)-3-fluoropyridin-2-yl)-N-(6-fluorobenzo[d]-thiazol-2-yl)piperazine-1-carboxamide] | ≤ 50 nM | less than 0.5 °C | ≤ 50 nM | –
2 | O=C(Nc1nc2ccc(Cl)cc2s1)N1CCN(c2ncc(C[C@@H](O)CO)cc2F)CC1 [ACX, (R)-N-(6-chlorobenzo[d]thiazol-2-yl)-4-(5-(2,3-dihydroxypropyl)-3-fluoropyridin-2-yl)piperazine-1-carboxamide] | ≤ 50 nM | less than 0.5 °C | ≤ 50 nM | –
3 | Cc1ccc2nc(NC(=O)N3CCN(c4ncc(C[C@@H](O)CO)cc4F)CC3)sc2c1 [ACY, (R)-4-(5-(2,3-dihydroxypropyl)-3-fluoropyridin-2-yl)-N-(6-methylbenzo[d]-thiazol-2-yl)piperazine-1-carboxamide] | ≤ 50 nM | less than 0.5 °C | ≤ 50 nM | –
4 | O=C(Nc1nc2ccc(Cl)cc2s1)N1CCN(c2ncc(C[C@H](O)CO)cc2F)CC1 [ADE, (S)-N-(6-chlorobenzo[d]thiazol-2-yl)-4-(5-(2,3-dihydroxypropyl)-3-fluoropyridin-2-yl)piperazine-1-carboxamide] | ≤ 50 nM | less than 0.5 °C | ≤ 50 nM | –
5 | O=C(Nc1nc2ccc(F)cc2s1)N1CCN(c2ncc(C[C@H](O)CO)cc2Cl)CC1 [ADR] | ≤ 50 nM | less than 0.5 °C | ≤ 50 nM | –
6 | O=C(Nc1nc2ccc(Cl)cc2s1)N1CCN(c2ncc(C[C@@H](O)CO)cc2Cl)CC1 [ADT] | ≤ 50 nM | less than 0.5 °C | ≤ 50 nM | –
7 | Cc1ccc2nc(NC(=O)N3CCN(c4ncc(C[C@@H](O)CO)cc4Cl)CC3)sc2c1 [ADU] | ≤ 50 nM | less than 0.5 °C | ≤ 50 nM | –
8 | O=C(Nc1nc2ccc(Cl)cc2s1)N1CCN(c2ncc(C[C@H](O)CO)cc2Cl)CC1 [ADW] | ≤ 50 nM | less than 0.5 °C | ≤ 50 nM | –
9 | Cc1ccc2nc(NC(=O)N3CCN(c4ncc(C[C@@H](O)CO)cc4F)C[C@@H]3C)sc2c1 [AEM] | ≤ 50 nM | – | – | 59.7%
10 | C[C@H]1CN(c2ncc(C[C@@H](O)CO)cc2C(F)(F)F)CCN1C(=O)Nc1nc2ccc(F)cc2s1 [AGU] | ≤ 50 nM | – | ≤ 50 nM | 71%
